One assay addresses EGFR^L858R (Homo sapiens, UniProt P00533, L858R). Nature of the assay: Caliper Mobility Shift Assay, mutant EGFR kinase. In kind it is biochemical. As to conditions: read-out: Inhibition of Kinase Activity (IC50, nM) EGFR^L858R.
The subject of a further assay is A431. Nature of the assay: Inhibition of tumor cells, MTS method. The conditions noted are these: Homo sapiens, A-431, 72 hours. It is filed as cell-based. As to the method:
(§1) (1) Compounds: in vitro studies the test compounds was dissolved in 100% DMSO and diluted until the final concentration of DMSO was 0.1%. The 0.1% (v/v) DMSO was added into culture medium as solvent control. 9 concentration gradients were tested and each gradient was repeated twice. (2) Tumor cell lines: the tumor cell lines were cultivated in RPMI10 culture medium containing 10% fetal calf serum in incubator at 37° C. in a 5% CO2 air incubator. The tested tumor cell lines were: BT474, MDA-MB-231, SK-Br-3, A431, H292, H1975, HCC827, A549, H1650 and H1734. (3) MTS method: cells were seeded into 96-well plate to give a density of about 3000 cells per well, and incubated overnight in a humidified incubator at 37° C. In the next day, the test compounds were added to the wells and further incubated for 72 hours. The cell activity was detected using MTS. IC50 was calculated (the concentration of a compound that is required for 50% inhibition of the cell growth versus the DMSO control group, using nonlinear regression analysis of software GraphPad Prism). […] In a 96-well plate, each test compound was tested at 9 dosage concentrations and each dosage was made in triplicate. Samples were added in 100 μL/well. Cell control and negative control wells contained diluents instead of compounds. Except the negative control well, 100 μL cell suspension of complete medium was added into each test well, wherein corresponding cell numbers were included to assure that the cells in cell control well just cover the bottom of the well as the required incubation time was reached. The plate was incubated in a CO2 incubator at 37° C. for 48 hours. The liquid in test wells was removed by pipetting. 100 μL CCK-8 (Cell counting Kit-8, purchased from DOJINDO Molecular Technologies) detection liquid (containing 10% CCK-8, 5% FBS corresponding medium) was added into each test well, then the plate was incubated in a CO2 incubator under at 37° C. for 3 hours. OD value was detected by ELIASA at A450 nm. Cell viability percentage (%)=(O.D. test compound-O.D. blank)/(O.D. control-O.D. blank)×100. Mean value was calculated for each 3 repeated wells, and IC50 was calculated using nonlinear regression (fitted curve) data analysis method.

A further assay deals with A549. Nature of the assay: Inhibition of tumor cells, MTS method. It is filed as cell-based. The conditions noted are these: Homo sapiens, 72 hours. The protocol: as §1
Another assay has as its system BT474. Nature of the assay: Inhibition of tumor cells, MTS method. In kind it is cell-based. The conditions noted are these: Homo sapiens, BT-474, 72 hours. The protocol: as §1
Another assay relates to H1650. As to the kind of experiment: Inhibition of tumor cells, MTS method. It is filed as cell-based. The conditions noted are these: Homo sapiens, NCI-H1650, 72 hours. The protocol: as §1
The next assay deals with H1734. Nature of the assay: Inhibition of tumor cells, MTS method. It is filed as cell-based. As to conditions: Homo sapiens, NCI-H1734, 72 hours. The protocol:
as §1

The next assay deals with H1975. As to the kind of experiment: Inhibition of tumor cells, MTS method. The conditions noted are these: Homo sapiens, NCI-H1975, 72 hours. In kind it is cell-based. The protocol:
as §1

The subject of a further assay is H292. Nature of the assay: Inhibition of tumor cells, MTS method. It is filed as cell-based. As to conditions: Homo sapiens, NCI-H292, 72 hours. As to the method:
as §1

Another assay concerns HCC827. Nature of the assay: Inhibition of tumor cells, MTS method. In kind it is cell-based. As to conditions: Homo sapiens, 72 hours. The protocol: as §1
The next assay relates to SK-Br-3. As to the kind of experiment: Inhibition of tumor cells, MTS method. In kind it is cell-based. As to conditions: Homo sapiens, 72 hours. The protocol:
as §1

Assay [1] concerns H1975 human non-small cell lung cancer tumor cells. As to the kind of experiment: Transplanted tumor in nude mice, initial H1975 test. In kind it is in vivo, nude mice (BALB/c). As to the method: H1975 human non-small cell lung cancer tumor cells were inoculated into 18 nude mice (BALB/c, male, 5-6 weeks of age), and when the mean tumor volume reaches 150 mm^3 the nude mice were randomized into three groups, including: control group (5 nude mice), 20 mg compound Ie/kg/day dose group (8 nude mice) and 75 mg Gefitinib/kg/day (5 nude mice). Test compounds were continuously administrated orally for 21 days. Tumor size and body weight of nude mice were recorded twice weekly from the first day of administration. […] was calculated using the formula (1×w^2), wherein 1 and w respectively represents the maximum and minimum size in each measurement. The change relation of mean tumor volume with the days after tumor transplantation was graphed according to the calculation results.

Assay [2] has as its system H1975 (non-small cell lung cancer). Nature of the assay: Transplanted tumor in nude mice, further H1975 model. In kind it is in vivo, nude mice (BALB/c). The conditions noted are these: 6.7, 13.4, 20.1 mg/kg/day orally for 21 days. From the text:
(§2) Furthermore, more pharmacological models of tumor cell lines in nude mice were utilized to validate the inhibitory effects of compound Ie. The test method was specifically described as follows: H1975, A549, HCC827, A431, N87, MDA-MD-468 and CAL27 tumor cells respectively were inoculated into nude mice (BALB/c, male, 5-6 weeks of age), and when the mean tumor volume reaches 150 mm^3 mice was randomized into groups. The H1975 tumor model in nude mice includes one positive control group and three dosage groups of compound Ie (6.7 mg/kg/day, 13.4 mg/kg/day, and 20.1 mg/kg/day. The A549 tumor model in nude mice includes one positive control group, two dosage groups of compound Ie (10 mg/kg/day, 20 mg/kg/day), and one dosage group of Docetaxel (12 mg/kg/day). The HCC827 tumor model in nude mice includes one positive control group, two dosage groups of compound Ie (0.5 mg/kg/day, 2.5 mg/kg/day), and one dosage group of Erlotinib (12.5 mg/kg/day). The A431 tumor model in nude mice includes one positive control group, two dosage groups of compound Ie (2.5 mg/kg/day, 5 mg/kg/day), and one dosage group of Erlotinib (50 mg/kg/day). […] The tumor size and body weight of nude mice were recorded twice weekly from the first day of administration. The tumor volume was calculated using formula (1×w^2), wherein 1 and w respectively represents the maximum and minimum size in each measurement. […]

The next assay deals with A431(EGFR). Nature of the assay: Transplanted tumor in nude mice, A431 model. In kind it is in vivo, nude mice (BALB/c).
Source text: as §2

In assay [3] the test system is CAL27 (head and neck cancer). As to the kind of experiment: Transplanted tumor in nude mice, CAL27 model. It is filed as in vivo, nude mice (BALB/c). As to conditions: 10 mg/kg/day orally for 21 days.
Source text: as §2

EGFR^L858R, sequence (P00533 25-1210 L858R): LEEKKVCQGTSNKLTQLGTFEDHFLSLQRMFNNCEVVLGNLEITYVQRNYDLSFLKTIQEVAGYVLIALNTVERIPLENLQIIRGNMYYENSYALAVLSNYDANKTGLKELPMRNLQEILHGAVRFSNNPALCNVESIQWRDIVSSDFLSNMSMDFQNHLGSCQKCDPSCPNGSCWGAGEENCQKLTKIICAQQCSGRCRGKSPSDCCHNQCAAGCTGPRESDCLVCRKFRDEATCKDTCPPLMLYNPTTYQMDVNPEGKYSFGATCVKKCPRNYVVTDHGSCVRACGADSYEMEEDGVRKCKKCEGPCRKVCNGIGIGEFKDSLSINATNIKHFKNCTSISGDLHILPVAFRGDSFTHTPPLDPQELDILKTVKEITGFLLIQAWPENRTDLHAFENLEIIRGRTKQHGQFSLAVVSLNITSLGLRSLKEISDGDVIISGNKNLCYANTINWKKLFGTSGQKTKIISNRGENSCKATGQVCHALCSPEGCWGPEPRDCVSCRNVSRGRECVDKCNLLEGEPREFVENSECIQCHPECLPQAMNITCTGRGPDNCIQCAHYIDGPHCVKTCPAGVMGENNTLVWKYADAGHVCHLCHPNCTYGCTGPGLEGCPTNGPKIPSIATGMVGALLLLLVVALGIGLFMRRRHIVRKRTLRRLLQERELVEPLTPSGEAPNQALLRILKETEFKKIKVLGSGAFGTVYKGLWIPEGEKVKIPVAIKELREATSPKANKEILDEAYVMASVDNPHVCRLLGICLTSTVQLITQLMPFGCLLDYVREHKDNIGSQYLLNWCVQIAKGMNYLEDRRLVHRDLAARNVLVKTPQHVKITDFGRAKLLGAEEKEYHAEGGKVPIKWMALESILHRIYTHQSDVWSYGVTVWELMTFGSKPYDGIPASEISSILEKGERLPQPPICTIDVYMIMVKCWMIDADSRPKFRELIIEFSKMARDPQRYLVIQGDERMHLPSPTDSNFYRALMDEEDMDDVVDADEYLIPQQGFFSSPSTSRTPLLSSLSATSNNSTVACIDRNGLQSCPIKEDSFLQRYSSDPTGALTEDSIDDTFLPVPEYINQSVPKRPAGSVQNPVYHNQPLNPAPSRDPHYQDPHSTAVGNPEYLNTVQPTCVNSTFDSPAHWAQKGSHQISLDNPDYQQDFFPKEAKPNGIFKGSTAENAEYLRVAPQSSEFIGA

With `CN(C)C/C=C/C(=O)Nc1cc2c(Nc3ccc(F)c(Cl)c3)ncnc2cc1OC(F)F` [Compound Ie], the half-inhibitory concentration (IC50) on EGFR^L858R turned out to be 0.65 nM; with A431 it was 0.652 µM; with A549 it was 3.72 µM; with BT474, 0.034 µM; in the assay with H1650, 3.24 µM; in the assay on H1734, 0.539 µM. Besides, the IC50 in the assay with H1975 amounted to 0.8 µM; with H292, 2.65 µM; in the assay with HCC827, 0.002 µM; in the assay with SK-Br-3 it was 0.23 µM. Further, in assay [1] (H1975 tumor model, 20 mg compound Ie/kg/day orally for 21 days), the T/C % is reported as 59%. The “therapeutic effect on H1975 tumor model” value in assay [1] (compound Ie 20 mg/kg/day, Gefitinib 75 mg/kg/day, orally for 21 days) is on record as “good therapeutic effect”. For the same compound, the “inhibitory and therapeutic effects on H1975 tumor model” value in assay [2] was “strong inhibitory effects and therapeutic effects”. In the assay with A431(EGFR) (2.5, 5 mg/kg/day orally for 21 days), the “inhibitory and therapeutic effects on A431 tumor model” value is “strong inhibitory effects and therapeutic effects”. In addition, in the assay on A431(EGFR) (versus Erlotinib (50 mg/kg/day)), the “inhibitory effects on tumor cell growth compared with other drugs, A431 model” value is recorded as “stronger inhibitory effects”. The “inhibitory and therapeutic effects on CAL27 tumor model” value in assay [3] was “strong inhibitory effects and therapeutic effects”.

The values above are taken from US20150065709A1, “Aminoquinazoline Derivative And Use Thereof In Preparing Anti-Malignant Tumor Medicament” (METABOMICS, INC, priority 2012, published 2015).
